ChEMBL document CHEMBL2401638, “Design and synthesis of biquinolone-isoniazid hybrids as a new class of antitubercular and antimicrobial agents” (Eur J Med Chem, 2013)

Assays:
Candida albicans = experiment: Antifungal activity against Candida albicans MTCC 227 assessed as growth inhibition by broth microdilution method; format: functional
Trichophyton rubrum = experiment: Antifungal activity against Trichophyton rubrum MTCC 296 assessed as growth inhibition by broth microdilution method; format: functional
[1] = system: Mycobacterium tuberculosis; experiment: Antituberculosis activity against Mycobacterium tuberculosis H37Rv assessed as growth inhibition at 250 ug/ml after 12 to 28 days by Lowenstein-Jensen method relative to control; format: functional; conditions: read-out: GI
Pseudomonas aeruginosa = experiment: Antibacterial activity against Pseudomonas aeruginosa MTCC 1688 assessed as growth inhibition by broth microdilution method; format: functional
Staphylococcus aureus = experiment: Antibacterial activity against Staphylococcus aureus MTCC 96 assessed as growth inhibition by broth microdilution method; format: functional
Escherichia coli = experiment: Antibacterial activity against Escherichia coli MTCC 443 assessed as growth inhibition by broth microdilution method; format: functional
Bacillus subtilis = experiment: Antibacterial activity against Bacillus subtilis MTCC 441 assessed as growth inhibition by broth microdilution method; format: functional
Clostridium tetani = experiment: Antibacterial activity against Clostridium tetani MTCC 449 assessed as growth inhibition by broth microdilution method; format: functional
Salmonella typhi = experiment: Antibacterial activity against Salmonella typhi MTCC 98 assessed as growth inhibition by broth microdilution method; format: functional, Salmonella enterica subsp. enterica serovar Typhi; conditions: Salmonella enterica

NYSTATIN
MIC (Candida albicans): 100 µg/mL | MIC (Trichophyton rubrum): 100 µg/mL

C=CCn1c(=O)c(C2C(C(=O)OCC)=C(N)N(NC(=O)c3ccncc3)C3=C2C(=O)CC(C)(C)C3)cc2ccccc21 (configuration not stated)
inhibition of growth at 250 µg/mL [1]: 84% | MIC (Candida albicans): 250 µg/mL | MIC (Pseudomonas aeruginosa): 500 µg/mL | MIC (Staphylococcus aureus): 250 µg/mL | MIC (Escherichia coli): 50 µg/mL | MIC (Bacillus subtilis): 500 µg/mL | MIC (Clostridium tetani): 500 µg/mL | MIC (Trichophyton rubrum): 500 µg/mL | MIC (Salmonella typhi): 100 µg/mL

C=CCn1c(=O)c(C2C(C(=O)OC(C)C)=C(N)N(NC(=O)c3ccncc3)C3=C2C(=O)CCC3)cc2cc(OC)ccc21 (configuration not stated)
inhibition of growth at 250 µg/mL [1]: 27% | MIC (Candida albicans): 250 µg/mL | MIC (Pseudomonas aeruginosa): 250 µg/mL | MIC (Staphylococcus aureus): 250 µg/mL | MIC (Escherichia coli): 200 µg/mL | MIC (Bacillus subtilis): 250 µg/mL | MIC (Clostridium tetani): 250 µg/mL | MIC (Trichophyton rubrum): 1000 µg/mL | MIC (Salmonella typhi): 250 µg/mL

C=CCn1c(=O)c(C2C(C(=O)OC(C)C)=C(N)N(NC(=O)c3ccncc3)C3=C2C(=O)CCC3)cc2cc(C)ccc21 (configuration not stated)
inhibition of growth at 250 µg/mL [1]: 22% | MIC (Candida albicans): 1000 µg/mL | MIC (Pseudomonas aeruginosa): 500 µg/mL | MIC (Staphylococcus aureus): 500 µg/mL | MIC (Escherichia coli): 250 µg/mL | MIC (Bacillus subtilis): 500 µg/mL | MIC (Clostridium tetani): 500 µg/mL | MIC (Trichophyton rubrum): 1000 µg/mL | MIC (Salmonella typhi): 200 µg/mL

C=CCn1c(=O)c(C2C(C(=O)OC(C)C)=C(N)N(NC(=O)c3ccncc3)C3=C2C(=O)CCC3)cc2ccccc21 (configuration not stated)
inhibition of growth at 250 µg/mL [1]: 65% | MIC (Candida albicans): 1000 µg/mL | MIC (Pseudomonas aeruginosa): 500 µg/mL | MIC (Staphylococcus aureus): 500 µg/mL | MIC (Escherichia coli): 100 µg/mL | MIC (Bacillus subtilis): 250 µg/mL | MIC (Clostridium tetani): 500 µg/mL | MIC (Trichophyton rubrum): 500 µg/mL | MIC (Salmonella typhi): 125 µg/mL

C=CCn1c(=O)c(C2C(C(=O)OCC)=C(N)N(NC(=O)c3ccncc3)C3=C2C(=O)CCC3)cc2cc(Cl)ccc21 (configuration not stated)
inhibition of growth at 250 µg/mL [1]: 87% | MIC (Candida albicans): 250 µg/mL | MIC (Pseudomonas aeruginosa): 500 µg/mL | MIC (Staphylococcus aureus): 100 µg/mL | MIC (Escherichia coli): 100 µg/mL | MIC (Bacillus subtilis): 250 µg/mL | MIC (Clostridium tetani): 125 µg/mL | MIC (Trichophyton rubrum): 1000 µg/mL | MIC (Salmonella typhi): 250 µg/mL

C=CCn1c(=O)c(C2C(C(=O)OC)=C(N)N(NC(=O)c3ccncc3)C3=C2C(=O)CCC3)cc2cc(Cl)ccc21 (configuration not stated)
inhibition of growth at 250 µg/mL [1]: 89% | MIC (Candida albicans): 1000 µg/mL | MIC (Pseudomonas aeruginosa): 500 µg/mL | MIC (Staphylococcus aureus): 250 µg/mL | MIC (Escherichia coli): 250 µg/mL | MIC (Bacillus subtilis): 500 µg/mL | MIC (Clostridium tetani): 200 µg/mL | MIC (Trichophyton rubrum): 1000 µg/mL | MIC (Salmonella typhi): 200 µg/mL

COC1=CC(=O)C[C@@H](C)[C@]12Oc1c(Cl)c(OC)cc(OC)c1C2=O [GRISEOFULVIN]
MIC (Candida albicans): 500 µg/mL | MIC (Trichophyton rubrum): 100 µg/mL

C=CCn1c(=O)c(C2C(C(=O)OC)=C(N)N(NC(=O)c3ccncc3)C3=C2C(=O)CCC3)cc2ccccc21 (configuration not stated)
inhibition of growth at 250 µg/mL [1]: 74% | MIC (Candida albicans): 500 µg/mL | MIC (Pseudomonas aeruginosa): 50 µg/mL | MIC (Staphylococcus aureus): 125 µg/mL | MIC (Escherichia coli): 500 µg/mL | MIC (Bacillus subtilis): 100 µg/mL | MIC (Clostridium tetani): 125 µg/mL | MIC (Trichophyton rubrum): 500 µg/mL | MIC (Salmonella typhi): 250 µg/mL

C=CCn1c(=O)c(C2C(C(=O)OC)=C(N)N(NC(=O)c3ccncc3)C3=C2C(=O)CC(C)(C)C3)cc2cc(Cl)ccc21 (configuration not stated)
inhibition of growth at 250 µg/mL [1]: 87% | MIC (Candida albicans): 500 µg/mL | MIC (Pseudomonas aeruginosa): 500 µg/mL | MIC (Staphylococcus aureus): 200 µg/mL | MIC (Escherichia coli): 250 µg/mL | MIC (Bacillus subtilis): 500 µg/mL | MIC (Clostridium tetani): 100 µg/mL | MIC (Trichophyton rubrum): 1000 µg/mL | MIC (Salmonella typhi): 200 µg/mL

C=CCn1c(=O)c(C2C(C(=O)OCC)=C(N)N(NC(=O)c3ccncc3)C3=C2C(=O)CC(C)(C)C3)cc2cc(Cl)ccc21 (configuration not stated)
inhibition of growth at 250 µg/mL [1]: 56% | MIC (Candida albicans): 1000 µg/mL | MIC (Pseudomonas aeruginosa): 100 µg/mL | MIC (Staphylococcus aureus): 250 µg/mL | MIC (Escherichia coli): 200 µg/mL | MIC (Bacillus subtilis): 200 µg/mL | MIC (Clostridium tetani): 250 µg/mL | MIC (Trichophyton rubrum): 500 µg/mL | MIC (Salmonella typhi): 200 µg/mL

C=CCn1c(=O)c(C2C(C(=O)OC(C)C)=C(N)N(NC(=O)c3ccncc3)C3=C2C(=O)CC(C)(C)C3)cc2cc(OC)ccc21 (configuration not stated)
inhibition of growth at 250 µg/mL [1]: 74% | MIC (Candida albicans): 1000 µg/mL | MIC (Pseudomonas aeruginosa): 250 µg/mL | MIC (Staphylococcus aureus): 500 µg/mL | MIC (Escherichia coli): 200 µg/mL | MIC (Bacillus subtilis): 250 µg/mL | MIC (Clostridium tetani): 500 µg/mL | MIC (Trichophyton rubrum): 500 µg/mL | MIC (Salmonella typhi): 250 µg/mL

C=CCn1c(=O)c(C2C(C(=O)OC(C)C)=C(N)N(NC(=O)c3ccncc3)C3=C2C(=O)CC(C)(C)C3)cc2ccccc21 (configuration not stated)
inhibition of growth at 250 µg/mL [1]: 78% | MIC (Candida albicans): 1000 µg/mL | MIC (Pseudomonas aeruginosa): 250 µg/mL | MIC (Staphylococcus aureus): 500 µg/mL | MIC (Escherichia coli): 200 µg/mL | MIC (Bacillus subtilis): 500 µg/mL | MIC (Clostridium tetani): 500 µg/mL | MIC (Trichophyton rubrum): 250 µg/mL | MIC (Salmonella typhi): 25 µg/mL

C=CCn1c(=O)c(C2C(C(=O)OCC)=C(N)N(NC(=O)c3ccncc3)C3=C2C(=O)CCC3)cc2cc(C)ccc21 (configuration not stated)
inhibition of growth at 250 µg/mL [1]: 23% | MIC (Candida albicans): 500 µg/mL | MIC (Pseudomonas aeruginosa): 250 µg/mL | MIC (Staphylococcus aureus): 100 µg/mL | MIC (Escherichia coli): 500 µg/mL | MIC (Bacillus subtilis): 250 µg/mL | MIC (Clostridium tetani): 62.5 µg/mL | MIC (Trichophyton rubrum): 100 µg/mL | MIC (Salmonella typhi): 500 µg/mL

C=CCn1c(=O)c(C2C(C(=O)OC)=C(N)N(NC(=O)c3ccncc3)C3=C2C(=O)CCC3)cc2cc(C)ccc21 (configuration not stated)
inhibition of growth at 250 µg/mL [1]: 58% | MIC (Candida albicans): 500 µg/mL | MIC (Pseudomonas aeruginosa): 100 µg/mL | MIC (Staphylococcus aureus): 500 µg/mL | MIC (Escherichia coli): 500 µg/mL | MIC (Bacillus subtilis): 62.5 µg/mL | MIC (Clostridium tetani): 500 µg/mL | MIC (Trichophyton rubrum): > 1000 µg/mL | MIC (Salmonella typhi): 250 µg/mL

O=C(O)c1cn(C2CC2)c2cc(N3CCNCC3)c(F)cc2c1=O [CIPROFLOXACIN]
MIC (Staphylococcus aureus): 50 µg/mL | MIC (Escherichia coli): 25 µg/mL | MIC (Salmonella typhi): 25 µg/mL

C=CCn1c(=O)c(C2C(C(=O)OC)=C(N)N(NC(=O)c3ccncc3)C3=C2C(=O)CC(C)(C)C3)cc2cc(OC)ccc21 (configuration not stated)
inhibition of growth at 250 µg/mL [1]: 45% | MIC (Candida albicans): 1000 µg/mL | MIC (Pseudomonas aeruginosa): 250 µg/mL | MIC (Staphylococcus aureus): 250 µg/mL | MIC (Escherichia coli): 200 µg/mL | MIC (Bacillus subtilis): 250 µg/mL | MIC (Clostridium tetani): 200 µg/mL | MIC (Trichophyton rubrum): 500 µg/mL | MIC (Salmonella typhi): 200 µg/mL

C=CCn1c(=O)c(C2C(C(=O)OC(C)C)=C(N)N(NC(=O)c3ccncc3)C3=C2C(=O)CCC3)cc2cc(Cl)ccc21 (configuration not stated)
inhibition of growth at 250 µg/mL [1]: 89% | MIC (Candida albicans): 500 µg/mL | MIC (Pseudomonas aeruginosa): 200 µg/mL | MIC (Staphylococcus aureus): 200 µg/mL | MIC (Escherichia coli): 250 µg/mL | MIC (Bacillus subtilis): 200 µg/mL | MIC (Clostridium tetani): 200 µg/mL | MIC (Trichophyton rubrum): 500 µg/mL | MIC (Salmonella typhi): 500 µg/mL

C=CCn1c(=O)c(C2C(C(=O)OCC)=C(N)N(NC(=O)c3ccncc3)C3=C2C(=O)CCC3)cc2cc(OC)ccc21 (configuration not stated)
inhibition of growth at 250 µg/mL [1]: 54% | MIC (Candida albicans): 250 µg/mL | MIC (Pseudomonas aeruginosa): 200 µg/mL | MIC (Staphylococcus aureus): 125 µg/mL | MIC (Escherichia coli): 250 µg/mL | MIC (Bacillus subtilis): 200 µg/mL | MIC (Clostridium tetani): 100 µg/mL | MIC (Trichophyton rubrum): 1000 µg/mL | MIC (Salmonella typhi): 500 µg/mL

C=CCn1c(=O)c(C2C(C(=O)OCC)=C(N)N(NC(=O)c3ccncc3)C3=C2C(=O)CCC3)cc2ccccc21 (configuration not stated)
inhibition of growth at 250 µg/mL [1]: 51% | MIC (Candida albicans): 500 µg/mL | MIC (Pseudomonas aeruginosa): 500 µg/mL | MIC (Staphylococcus aureus): 250 µg/mL | MIC (Escherichia coli): 500 µg/mL | MIC (Bacillus subtilis): 500 µg/mL | MIC (Clostridium tetani): 250 µg/mL | MIC (Trichophyton rubrum): > 1000 µg/mL | MIC (Salmonella typhi): 250 µg/mL

CCn1cc(C(=O)O)c(=O)c2cc(F)c(N3CCNCC3)cc21 [NORFLOXACIN]
MIC (Pseudomonas aeruginosa): 10 µg/mL | MIC (Staphylococcus aureus): 10 µg/mL | MIC (Escherichia coli): 10 µg/mL | MIC (Bacillus subtilis): 100 µg/mL | MIC (Clostridium tetani): 50 µg/mL | MIC (Salmonella typhi): 10 µg/mL

O=C(N[C@H](CO)[C@H](O)c1ccc([N+](=O)[O-])cc1)C(Cl)Cl [CHLORAMPHENICOL]
MIC (Pseudomonas aeruginosa): 50 µg/mL | MIC (Staphylococcus aureus): 50 µg/mL | MIC (Escherichia coli): 50 µg/mL | MIC (Bacillus subtilis): 50 µg/mL | MIC (Clostridium tetani): 50 µg/mL | MIC (Salmonella typhi): 50 µg/mL

CC1(C)S[C@@H]2[C@H](NC(=O)[C@H](N)c3ccccc3)C(=O)N2[C@H]1C(=O)O [AMPICILLIN]
MIC (Staphylococcus aureus): 250 µg/mL | MIC (Escherichia coli): 100 µg/mL | MIC (Bacillus subtilis): 250 µg/mL | MIC (Clostridium tetani): 250 µg/mL | MIC (Salmonella typhi): 100 µg/mL
